Measured values: ChEMBL document CHEMBL1127525, “Synthesis and antitumor activities of novel 6-5 fused ring heterocycle antifolates: N-[4-[omega-(2-amino-4-substituted-6,7-dihydrocyclopenta [d]pyrimidin-5-yl)alkyl]benzoyl]-L-glutamic acids” (J Med Chem, 1994)

Tests used:
Colon 26 [1] = experiment: (§1) Inhibitory concentration of compound was tested against Colon 26 tumor growth cell line; type: functional, cell-based; settings: Mus musculus
MC-38 = experiment: Inhibitory concentration of compound was tested against Colon 38 tumor growth cell line; type: functional, cell-based; settings: Mus musculus
P388 [2] = experiment: inhibitory concentration of compound was tested against P388:Methotrexate resistant cells tumor growth cell line; type: functional, cell-based; settings: Mus musculus
KB = experiment: Inhibitory concentration of compound was tested against KB tumor growth cell line; type: functional, cell-based; settings: Homo sapiens
Dihydrofolate reductase [3] = molecular target: T1, Dihydrofolate reductase (Mus musculus, UniProt P00375); experiment: Compound was tested for the inhibition of dihydrofolate reductase in P388 cells; type: cell-based
T1 sequence (P00375 whole entry): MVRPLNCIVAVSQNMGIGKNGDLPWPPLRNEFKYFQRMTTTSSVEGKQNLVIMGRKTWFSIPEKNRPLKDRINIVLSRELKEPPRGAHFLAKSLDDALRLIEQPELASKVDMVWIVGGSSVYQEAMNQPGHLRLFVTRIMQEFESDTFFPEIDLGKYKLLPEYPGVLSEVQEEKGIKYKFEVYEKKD

P388 (Mus musculus) = experiment: Inhibitory concentration of compound was tested against P388 tumor growth cell line
Mus musculus [4] = experiment: Compound was evaluated for the activity against LC-6 Non-Small cell lung carcinoma in mice by tumor weight assay at 5 (mg/kg) dose experiment-2; type: functional
Mus musculus [5] = experiment: Compound was evaluated for the life span assay against P388 Leukemia in mice (Controls died in an average of 9.8 days) at 1.56 (mg/kg) dose; type: functional
Mus musculus [6] = experiment: Compound was evaluated for the activity against Colon 26 Mouse colorectal carcinoma in mice by tumor weight assay at 0.6 (mg/kg) dose; type: functional
Mus musculus [7] = experiment: Compound was evaluated for the activity against LC-6 Non-Small cell lung carcinoma in mice by tumor weight assay at 1.3 (mg/kg) dose experiment-2; type: functional
Mus musculus [8] = experiment: Compound was evaluated for the activity against Colon 26 Mouse colorectal carcinoma in mice by tumor weight assay at 2.5 (mg/kg) dose; type: functional
Mus musculus [9] = experiment: Compound was evaluated for the life span assay against P388 Leukemia in mice (Controls died in an average of 9.8 days) at 0.78 (mg/kg) dose; type: functional
Mus musculus [10] = experiment: Compound was evaluated for the life span assay against P388 Leukemia in mice (Controls died in an average of 9.8 days) at 0.39 (mg/kg) dose; type: functional
Mus musculus [11] = experiment: Compound was evaluated for the activity against Colon 26 Mouse colorectal carcinoma in mice by tumor weight assay at 0.3 (mg/kg) dose; type: functional
Mus musculus [12] = experiment: Compound was evaluated for the activity against LC-6 Non-Small cell lung carcinoma in mice by tumor weight assay at 5 (mg/kg) dose experiment-1; type: functional
Mus musculus [13] = experiment: Compound was evaluated for the activity against LC-6 Non-Small cell lung carcinoma in mice by tumor weight assay at 2.5 (mg/kg) dose experiment-2; type: functional
Mus musculus [14] = experiment: Compound was evaluated for the life span assay against P388 Leukemia in mice (Controls died in an average of 9.8 days) at 3.13 (mg/kg) dose; type: functional
Mus musculus [15] = experiment: Compound was evaluated for the activity against Colon 26 Mouse colorectal carcinoma in mice by tumor weight assay at 1.25 (mg/kg) dose; type: functional
Mus musculus [16] = experiment: Compound was evaluated for the life span assay against P388 Leukemia in mice (Controls died in an average of 9.8 days) at 0.1 (mg/kg) dose; type: functional
Mus musculus [17] = experiment: Compound was evaluated for the life span assay against P388 Leukemia in mice (Controls died in an average of 9.8 days) at 0.2 (mg/kg) dose; type: functional
Mus musculus [18] = experiment: Compound was evaluated for the activity against LC-6 Non-Small cell lung carcinoma in mice by tumor weight assay at 2.5 (mg/kg) dose experiment-1; type: functional
Mus musculus [19] = experiment: Compound was evaluated for the life span assay against P388 Leukemia in mice (Controls died in an average of 9.8 days) at 0.05 (mg/kg) dose; type: functional
P388 [20] = experiment: Inhibitory concentration of compound was tested against P388:Methotrexate resistant cells tumor growth cell line; type: functional, cell-based; settings: Mus musculus
Colon 26 [21] = experiment: Inhibitory concentration of compound was tested against Colon 26 Mouse Colorectal Carcinoma on 4 hour exposure; type: functional, cell-based; settings: Colon 26, 4 h
Mus musculus [22] = experiment: Compound was evaluated for the activity against Colon 26 Mouse colorectal carcinoma in mice by tumor weight assay at 10 (mg/kg) dose; type: functional
Mus musculus [23] = experiment: Compound was evaluated for the life span assay against P388 Leukemia in mice (Controls died in an average of 9.8 days) at 50 (mg/kg) dose; type: functional
Mus musculus [24] = experiment: Compound was evaluated for the life span assay against P388 Leukemia in mice (Controls died in an average of 9.8 days) at 12.5 (mg/kg) dose; type: functional
P388 [25] = experiment: Inhibitory concentration of compound was tested against P388 tumor growth cell line; type: functional, cell-based; settings: Mus musculus
Mus musculus [26] = experiment: Compound was evaluated for the activity against Colon 26 Mouse colorectal carcinoma in mice by tumor weight assay at 5 (mg/kg) dose; type: functional
Mus musculus [27] = experiment: Compound was evaluated for the activity against LC-6 Non-Small cell lung carcinoma in mice by tumor weight assay at 20 (mg/kg) dose experiment-1; type: functional
Mus musculus [28] = experiment: Compound was evaluated for the activity against LC-6 Non-Small cell lung carcinoma in mice by tumor weight assay at 40 (mg/kg) dose experiment-2; type: functional
Mus musculus [29] = experiment: Compound was evaluated for the activity against Colon 26 Mouse colorectal carcinoma in mice by tumor weight assay at 20 (mg/kg) dose; type: functional
Mus musculus [30] = experiment: Compound was evaluated for the activity against LC-6 Non-Small cell lung carcinoma in mice by tumor weight assay at 20 (mg/kg) dose experiment-2; type: functional
Mus musculus [31] = experiment: Compound was evaluated for the activity against LC-6 Non-Small cell lung carcinoma in mice by tumor weight assay at 10 (mg/kg) dose experiment-2; type: functional
Mus musculus [32] = experiment: Compound was evaluated for the life span assay against P388 Leukemia in mice (Controls died in an average of 9.8 days) at […] (mg/kg) dose; type: functional
Mus musculus [33] = experiment: Compound was evaluated for the activity against LC-6 Non-Small cell lung carcinoma in mice by tumor weight assay at 10 (mg/kg) dose in experiment-1; type: functional
Mus musculus [34] = experiment: Compound was evaluated for the activity against LC-6 Non-Small cell lung carcinoma in mice by tumor weight assay at 10 (mg/kg) dose; type: functional
Mus musculus [35] = experiment: Compound was evaluated for the activity against LC-6 Non-Small cell lung carcinoma in mice by tumor weight assay at 40 (mg/kg) dose; type: functional
Mus musculus [36] = experiment: Compound was evaluated for the activity against LC-6 Non-Small cell lung carcinoma in mice by tumor weight assay at 20 (mg/kg) dose; type: functional
Mus musculus [37] = organism: Mus musculus; experiment: as §1; type: functional
Mus musculus [38] = experiment: Compound was evaluated for the life span assay and the activity against P388 Leukemia in mice (Controls died in an average of 9.8 days) at 3.13 (mg/kg) dose; type: functional
Mus musculus [39] = experiment: Compound was evaluated for the activity against Colon 26 Mouse colorectal carcinoma in mice by tumor weight assay at 40 (mg/kg) dose
Thymidylate synthase = molecular target: T2, Thymidylate synthase (Lactobacillus casei, UniProt P00469); experiment: Binding affinity against TS
T2 sequence (P00469 whole entry): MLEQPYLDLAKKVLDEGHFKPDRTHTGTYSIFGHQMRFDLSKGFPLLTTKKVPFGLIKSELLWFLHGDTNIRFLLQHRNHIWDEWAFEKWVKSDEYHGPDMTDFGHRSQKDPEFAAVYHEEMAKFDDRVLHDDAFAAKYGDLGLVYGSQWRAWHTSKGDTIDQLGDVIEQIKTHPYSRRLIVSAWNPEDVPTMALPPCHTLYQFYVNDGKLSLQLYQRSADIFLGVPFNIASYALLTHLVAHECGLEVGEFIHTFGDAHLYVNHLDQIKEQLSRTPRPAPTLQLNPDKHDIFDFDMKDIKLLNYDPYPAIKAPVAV

Dihydrofolate reductase [40] = molecular target: T1, Dihydrofolate reductase; experiment: Binding affinity against dihydrofolate reductase

Nc1nc2c(c(=O)[nH]1)C(CCc1ccc(C(=O)NC(CCC(=O)O)C(=O)O)cc1)CC2 (stereo unspecified) gave an IC50 (Colon 26 [1]) greater than 1000 nM, an IC50 (MC-38) greater than 1000 nM and an IC50 (P388 [2]) greater than 1000 nM. The IC50 (KB) was greater than 1000 nM, the IC50 (Dihydrofolate reductase [3]) was 2.1 nM and the IC50 (P388 (Mus musculus)) was greater than 1000 nM.
Compound Nc1nc(N)c2c(n1)CCC2CCCc1ccc(C(=O)NC(CCC(=O)O)C(=O)O)cc1 (stereo unspecified) has a T/C (Mus musculus [4]) of 1%, a T/C (Mus musculus [5]) of 180% and a T/C (Mus musculus [6]) of 49%. For the same compound, the IC50 (Colon 26 [1]) was 3 nM, the T/C (Mus musculus [7]) was 4% and the IC50 (MC-38) was 5.1 nM. For the same compound, the T/C (Mus musculus [8]) was 31%, the T/C (Mus musculus [9]) was 170% and the T/C (Mus musculus [10]) was 158%. For the same compound, the T/C (Mus musculus [11]) was 71%, the T/C (Mus musculus [12]) was 23% and the T/C (Mus musculus [13]) was 9%. The T/C (Mus musculus [14]) was 138%, the T/C (Mus musculus [15]) was 38% and the T/C (Mus musculus [16]) was 130%. It also gave an IC50 (KB) of 1.7 nM, a T/C (Mus musculus [17]) of 147% and a T/C (Mus musculus [18]) of 6%. It also gave a T/C (Mus musculus [19]) of 120%, an IC50 (P388 [20]) of 19 nM and an IC50 (Colon 26 [21]) of 1700 nM.
Nc1nc(N)c2c(n1)CCC2CCc1ccc(C(=O)NC(CCC(=O)O)C(=O)O)cc1 (stereo unspecified) gave an IC50 (Colon 26 [1]) of 8 nM, an IC50 (MC-38) of 10 nM and a T/C (Mus musculus [8]) of 95%. The T/C (Mus musculus [22]) was 41%, the T/C (Mus musculus [9]) was 129% and the T/C (Mus musculus [23]) was 148%. It also gave a T/C (Mus musculus [24]) of 147%, an IC50 (P388 [25]) of 7.1 nM and a T/C (Mus musculus [14]) of 135%. It also gave an IC50 (KB) of 4.1 nM, an IC50 (P388 [20]) of 64 nM and an IC50 (Dihydrofolate reductase [3]) of 72 nM. It also gave a T/C (Mus musculus [26]) of 62% and an IC50 (Colon 26 [21]) of 190 nM.
In the case of Nc1nc(O)c2c(n1)CCC2CCCc1ccc(C(=O)NC(CCC(=O)O)C(=O)O)cc1 (stereo unspecified), the IC50 (Colon 26 [1]) is reported as greater than 1000 nM, the IC50 (KB) is reported as greater than 1000 nM and the IC50 (P388 [20]) is reported as greater than 1000 nM. The IC50 (P388 (Mus musculus)) was greater than 1000 nM.
Work on CCC(Cc1cnc2nc(N)nc(N)c2n1)c1ccc(C(=O)N[C@@H](CCC(=O)O)C(=O)O)cc1 (stereo partly specified) [EDATREXATE] yielded a T/C (Mus musculus [27]) of 38%, a T/C (Mus musculus [5]) of 155% and a T/C (Mus musculus [28]) of 1%. It also gave an IC50 (Colon 26 [1]) of 4.8 nM, an IC50 (MC-38) of 11 nM and a T/C (Mus musculus [29]) of 64%. It also gave a T/C (Mus musculus [22]) of 70%, a T/C (Mus musculus [9]) of 136% and a T/C (Mus musculus [10]) of 135%. The T/C (Mus musculus [30]) was 1%, the T/C (Mus musculus [31]) was 22% and the T/C (Mus musculus [24]) was 157%. It also gave an IC50 (P388 [25]) of 4.3 nM, a T/C (Mus musculus [32]) of 165% and a T/C (Mus musculus [14]) of 162%. For the same compound, the T/C (Mus musculus [33]) was 63%, the IC50 (KB) was 3 nM and the T/C (Mus musculus [17]) was 114%. For the same compound, the IC50 (P388 [20]) was 44 nM and the IC50 (Colon 26 [21]) was greater than 40000 nM.
For CN(Cc1cnc2nc(N)nc(N)c2n1)c1ccc(C(=O)N[C@@H](CCC(=O)O)C(=O)O)cc1 [METHOTREXATE], the T/C (Mus musculus [34]) was 100%, the T/C (Mus musculus [35]) was 35% and the T/C (Mus musculus [29]) was 65%. The T/C (Mus musculus [36]) was 53%, the IC50 (Mus musculus [37]) was 31 nM and the T/C (Mus musculus [22]) was 71%. For the same compound, the T/C (Mus musculus [9]) was 122%, the IC50 (P388 [25]) was 23 nM and the T/C (Mus musculus [32]) was 168%. It also gave a T/C (Mus musculus [38]) of 149%, an IC50 (KB) of 19 nM and a T/C (Mus musculus [39]) of 31%. The IC50 (P388 [20]) was 223 nM and the IC50 (Colon 26 [21]) was greater than 40000 nM.
Compound Nc1nc2[nH]cc(CCc3ccc(C(=O)N[C@@H](CCC(=O)O)C(=O)O)cc3)c2c(=O)[nH]1 [PEMETREXED] has a Ki (Thymidylate synthase) of 550 nM and a Ki (Dihydrofolate reductase [40]) of 560 nM.
